Measured values taken from US8790902B2, “Microorganisms having enhanced tolerance to inhibitors and stress” (UT-Batelle, LLC, priority 2009, dated 2014).
Entries after “also recorded” stand apart in the source; their conditions may differ.

Columns and labels:
[1] = system: Zymomonas mobilis ZM4 wild-type; assay: Bioscreen growth of Z. mobilis ZM4 wild-type in RM with inhibitors; type: cell-based
Method: (§1) FIGS. 3A-3C. […] Z. mobilis strains were grown in RM (pH5.0) overnight, 20-μL culture were then transferred into 250-μL, RM media in the Bioscreen plate. […] Strains included in this study are: ZM4: Zymomonas mobilis ZM4 wild-type; AcR: ZM4 acetate tolerant mutant (Joachimstahl 1998); ZM4 (p42-0347): ZM4 containing a gateway plasmid p42-0347 over-expressing ZM4 gene ZMO0347; AcRIM0347: AcR insertional mutant of ZMO0347; AcRIM0347 (p42-0347): AcRIM0347 containing gateway plasmid p42-0347 over-expressing ZM4 gene ZMO0347. […] Triplicates were used for each condition.
(§2) FIGS. 4A-4E. […] Z. mobilis strains were grown in RM (pH5.0) overnight, 5-μL culture were then transferred into 250-μL RM media in the Bioscreen plate. […] Strains included in this study are: ZM4: Zymomonas mobilis ZM4 wild-type; AcR: ZM4 acetate tolerant mutant; ZM4 (p42-0347): ZM4 containing a gateway plasmid p42-0347 to express ZM4 gene ZMO0347; AcRIM0347: AcR insertional mutant of ZMO0347; AcRIM0347 (p42-0347): AcRIM0347 containing gateway plasmid p42-0347. […] Duplicate biological replicates were used for each condition.
(§3) FIGS. 5A-5E. […] Z. mobilis strains were grown in RM (pH 5.0) overnight, 5-μL culture were then transferred into 250-μL RM media in the Bioscreen plate. […] Strains included in this study are: ZM4: Zymomonas mobilis ZM4 wild-type; AcR: ZM4 acetate tolerant mutant; AcRIM0347: AcR insertional mutant of ZMO0347; AcRIM0347 (p42-0347): AcRIM0347 containing gateway plasmid p42-0347 over-expressing ZM4 gene ZMO0347.
(§4) American Type Culture Collection (ATCC31821) and the Z. mobilis acetate tolerant strain AcR has been described previously (Joachimsthal et al. 2000). ZM4 and AcR were cultured in RM medium at 30° C. S. cerevisiae wild-type, deletion mutant and GST-fusion ORF over-expression strains were obtained through Open Biosystems (Huntsville, Ala.). S. cerevisiae strains were cultured in rich YPD media. CM media with 2% glucose was used for S. cerevisiae wild-type and S. cerevisiae deletion mutants, CM media with 2% glucose minus uracil was used for S. cerevisiae GST-over expressing strains, 2% galactose was used to induce the GST-fusion strains. Plasmid-containing strains were routinely grown with antibiotics at the following concentrations (μg/mL): kanamycin of 50 for E. coli and 200 for ZM4; tetracycline, 10 for E. coli and 20 for ZM4; and gentamicin, 10 for E. coli. G418 of 200 for S. cerevisiae YKO deletion mutants. Growth was monitored turbidometrically by measuring optical density at 600nm periodically with the Bioscreen C automated microbiology growth curve analysis system (Growth Curve USA, Piscataway, N.J.).

[2] = system: AcR: ZM4 acetate tolerant mutant; type: cell-based, Zymomonas mobilis; settings: AcR; RM pH 5.0 supplemented with 195 mM of the chemical, anaerobic
Method: as §1, §2, §3, §4

AcRIM0347 (p42-0347) = type: cell-based, Zymomonas mobilis; settings: AcRIM0347 (p42-0347); RM pH 5.0 supplemented with 195 mM of the chemical, anaerobic
Method: as §1, §2, §3, §4

[3] = system: AcRIM0347: AcR insertional mutant of ZMO0347; type: cell-based, Zymomonas mobilis
Method: as §1, §2, §3, §4

ZM4 (p42-0347) = assay: Bioscreen growth of ZM4 (p42-0347) in RM with sodium and acetate ions; type: cell-based, Zymomonas mobilis
Method: as §1, §2, §4

[4] = system: S. cerevisiae Lsm deletion mutants; type: cell-based; settings: sodium acetate 40 g/L; Lsm1, 6, 7, 9, 12, 13, 16 deletions
Method: (§5) FIGS. 6A-6B. […] S. cerevisiae strains were grown in CM with 2% glucose for wild-type BY4741 and the deletion mutants, CM with 2% glucose minus uracil for GST over-expression strains. Five-μL culture was then transferred into 300-μL CM broth in the Bioscreen plate.
(§6) FIGS. 7A-7P. […] S. cerevisiae strains were grown in CM with 2% glucose (CM+glucose) for wild-type BY4741 and the deletion mutants, CM with 2% glucose and 2% galactose minus uracil (CM+glucose+2% galactose) for GST overexpression strains. A 5-μL culture was then transferred into 250-μL CM broth in the Bioscreen plate.
American Type Culture Collection (ATCC31821) and the Z. mobilis acetate tolerant strain AcR has been described previously (Joachimsthal et al. 2000). ZM4 and AcR were cultured in RM medium at 30° C. S. cerevisiae wild-type, deletion mutant and GST-fusion ORF over-expression strains were obtained through Open Biosystems (Huntsville, Ala.). S. cerevisiae strains were cultured in rich YPD media. […] Growth was monitored turbidometrically by measuring optical density at 600nm periodically with the Bioscreen C automated microbiology growth curve analysis system (Growth Curve USA, Piscataway, N.J.).

[5] = system: S. cerevisiae Lsm protein over-expressing strains; assay: Bioscreen growth of S. cerevisiae Lsm protein over-expressing (GST) strains with inhibitors; type: cell-based; settings: sodium acetate 40 g/L; Lsm1, 6, 9, 12, 13, 16
Method: as §5, §6, §4

ZM4 = settings: ethanol production; cited from earlier work
AcR mutant = settings: cited from earlier work
[6] = system: recombinant Zymomonas mobilis 8b; settings: pure glucose/xylose solutions; cited from earlier work
[7] = pH 5.0; cited from earlier work
Zymomonas mobilis = settings: cited from earlier work
[8] = 16 g/L (195 mM) sodium acetate in RM
[9] = AcRIM0347, RM pH 5.0 supplemented with 195 mM of the chemical, anaerobic, NA = lack of growth
[10] = ZM4 (p42-0347), RM pH 5.0 supplemented with 195 mM of the chemical, anaerobic

CC(=O)[O-].[Na+] [NaAc, sodium acetate]
Relative inhibitory effect on wild-type Z. mobilis growth among sodium and acetate salts ([1]; 195 mM in RM): most significant inhibitory effect | Growth of wild-type ZM4 in the presence of sodium acetate [1, 8]: unable to grow; also recorded: completely inhibited | Final Cell Density [2]: 0.63 ± 0.02 OD600 nm | Growth rate [2]: 0.29 ± 0.04 h⁻¹ | Final Cell Density (AcRIM0347 (p42-0347)): 0.45 ± 0.002 OD600 nm | Growth rate (AcRIM0347 (p42-0347)): 0.16 ± 0.002 h⁻¹ | Reduction of growth rate and final cell density of AcRIM0347 compared to parental strain AcR ([3]; 195 mM in RM): about 60% | Final Cell Density [3, 9]: 0.25 ± 0.001 OD600 nm | Growth rate [3, 9]: 0.12 ± 0.004 h⁻¹ | Growth of ZM4 (p42-0347) in the presence of sodium acetate (ZM4 (p42-0347); [8]): able to grow | Final Cell Density (ZM4 (p42-0347); [10]): 0.59 ± 0.002 OD600 nm | Growth rate (ZM4 (p42-0347); [10]): 0.27 ± 0.004 h⁻¹ | Growth of Lsm deletion mutants in the presence of sodium acetate [4]: negative effects on the growth | Growth of Lsm protein over-expressing strains in the presence of sodium acetate [5]: enhanced growth | Sodium acetate concentration above which parent ZM4 was inhibited significantly (ZM4): above 12 g/L | Sodium acetate concentration at which AcR was capable of efficient ethanol production (AcR mutant): 20 g/L

CC(=O)O [acetic acid]
Acetic acid concentration tolerated [6]: up to 16 g/L | Fraction in the uncharged and undissociated form (HAc) [7]: 36%

CCO [ethanol]
Ethanol tolerance (Zymomonas mobilis): 12%
